Measurements reported in patent US8541462B2, “Tetrahydrocarbazole derivatives as ligands of G-protein coupled receptors” (AEterna Zentaris GmbH, priority 2007, dated 2013).

Assay: Metabolic stability testing in liver microsomes
Format: in vitro ADME
Settings: mixed-gender human liver microsomes, 1 mg microsomal protein/mL, initial concentration 10 μM, 60 minutes at 37° C.; WO 2006/005484-substance 7 = 100%
Method: Subcellular fractions of different tissues can be prepared easily by ultracentrifugation. Most commonly these are prepared from the liver of animals and human donors to gain information about the potential hepatic clearance of compounds (first-pass elimination of drugs). Human or animal (e.g. dog, mouse, rat) subcellular fraction like liver microsomes, or possibly the fraction called S9 have therefore become a very commonly and widely used as an in vitro model to investigate mainly cytochrome P450 dependent phase I (but also phase II) metabolism that takes place in the liver.
In order to reflect the standard proportion of the enzymes in human and animal livers, liver microsomes are usually pooled from a number of […] of the same sex (or mixed-gender). By supplementing the liver microsomes with relevant cofactors and other components it is possible to investigate and distinguish between CYPs, flavin-containing monooxygenase (FMO) and UDP-glucuronosyltransferase (UGT) activities.
Selected compounds of the invention were tested for their stability in mixed-gender human liver microsomes and compared to pertinent prior art compounds.
Under the test conditions applied (1 mg microsomal protein/mL, initial concentration of 10 μM, and incubation for 60 minutes at 37° C.) the following normalized results were obtained.

Normalized microsomal stability | Compound
537% | CCC(C)[C@H](NC(=O)Cc1ccccc1F)C(=O)N[C@]1(C(=O)N[C@H](C(=S)NCCCCn2cncn2)C(C)CC)CCc2[nH]c3c(C(F)(F)F)cccc3c2C1 (stereo partly drawn) [compound 114, (R)-3-{(S)-2-[2-(2-Fluoro-phenyl)-acetylamino]-3-methyl-pentanoylamino}-8-trifluoromethyl-2,3,4,9-tetrahydro-1H-carbazole-3-carboxylic acid [(S)-2-methyl-1-1(4-[1,2,4]triazol-1-ylbutylthiocarbamoyl)-butyl]-amide]
1215% | CCOC(=O)c1csc([C@@H](NC(=O)[C@@]2(NC(=O)[C@@H](NC(=O)NCc3ccccc3F)[C@@H](C)CC)CCc3[nH]c4c(C(F)(F)F)cccc4c3C2)[C@@H](C)CC)n1 [compound 258, 2-{(1S,2S)-1-[((R)-3-{(2S,3S)-2-[3-(2-Fluoro-benzyl)-ureido]-3-methyl-pentanoylamino}-8-trifluoromethyl-2,3,4,9-tetrahydro-1H-carbazole-3-carbonyl)-amino]-2-methyl-butyl}-thiazole-4-carboxylic acid ethyl ester]
1194% | CC[C@H](C)[C@H](NC(=O)Cc1ccccc1F)C(=O)N[C@]1(C(=O)N[C@H](c2nc(C(=O)O)cs2)[C@@H](C)CC)CCc2[nH]c3c(C(F)(F)F)cccc3c2C1 [compound 256, 2-{(1S,2S)-1-[((R)-3-{(2S,3S)-2-[2-(2-Fluoro-phenyl)-acetylamino]-3-methyl-pentanoylamino}-8-trifluoromethyl-2,3,4,9-tetrahydro-1H-carbazole-3-carbonyl)-amino]-2-methyl-butyl}-thiazole-4-carboxylic acid]
1230% | CCC(C)[C@H](NC(=O)Cc1ccccc1F)C(=O)N[C@]1(C(=O)N[C@H](C(=O)NNC(N)=O)C(C)CC)CCc2[nH]c3c(C(F)(F)F)cccc3c2C1 (stereo partly drawn) [compound 164, (R)-3-{(S)-2-[2-(2-Fluoro-phenyl)-acetylamino]-3-methyl-pentanoylamino}-8-trifluoromethyl-2,3,4,9-tetrahydro-1H-carbazole-3-carboxylic acid [(S)-1-(N′-aminocarbonyl-hydrazinocarbonyl)-2-methyl-butyl]-amide]
1948% | CCC(C)[C@H](NC(=O)Cc1cccnc1)C(=O)N[C@]1(C(=O)N[C@H](C(N)=S)C(C)CC)CCc2[nH]c3c(C(F)(F)F)cccc3c2C1 (stereo partly drawn) [compound 230, (R)-3-[(S)-3-Methyl-2-(2-pyridin-3-yl-acetylamino)-pentanoylamino]-8-trifluoromethyl-2,3,4,9-tetrahydro-1H-carbazole-3-carboxylic acid ((S)-2-methyl-1-thiocarbamoyl-butyl)-amide]
276% | CCNC(=O)Nc1nnc([C@@H](NC(=O)[C@]2(NC(=O)[C@@H](NC(=O)Cc3ccccc3F)C(C)CC)CCc3[nH]c4c(C(F)(F)F)cccc4c3C2)C(C)CC)o1 (stereo partly drawn) [Compound 31, (S)-3-{(S)-2-[2-(2-Fluoro-phenyl)-acetylamino]-3-methyl-pentanoylamino}-8-trifluoromethyl-2,3,4,9-tetrahydro-1H-carbazole-3-carboxylic acid {(S)-1-[5-(3-ethyl-ureido)-[1,3,4]oxadiazol-2-yl]-2-methyl-butyl}-amide]
1491% | CC[C@H](C)[C@H](NC(=O)Cc1ccccc1F)C(=O)N[C@]1(C(=O)N[C@H](c2nc(-c3ccc(OC)cc3)cs2)[C@@H](C)CC)CCc2[nH]c3c(C(F)(F)F)cccc3c2C1 [compound 250, (R)-3-{(2S,3S)-2-[2-(2-Fluoro-phenyl)-acetylamino]-3-methyl-pentanoylamino}-8-trifluoromethyl-2,3,4,9-tetrahydro-1H-carbazole-3-carboxylic acid {(1S,2S)-1-[4-(4-methoxy-phenyl)-thiazol-2-yl]-2-methyl-butyl}-ami]
665% | CCC(C)[C@H](NC(=O)Cc1ccccc1F)C(=O)N[C@]1(C(=O)N[C@H](CNC(=O)NCc2ccncc2)C(C)CC)CCc2[nH]c3c(C(F)(F)F)cccc3c2C1 (stereo partly drawn) [compound 190, (R)-3-{(S)-2-[2-(2-Fluoro-phenyl)-acetylamino]-3-methyl-pentanoylamino}-8-trifluoromethyl-2,3,4,9-tetrahydro-1H-carbazole-3-carboxylic acid [(S)-2-methyl-1-(3-pyridin-4-ylmethyl-ureidomethyl)-butyl]-amide]
274% | CCNC(=O)NC[C@@H](NC(=O)[C@@]1(NC(=O)[C@@H](NC(=O)Cc2ccccc2F)C(C)CC)CCc2[nH]c3c(C(F)(F)F)cccc3c2C1)C(C)CC (stereo partly drawn) [compound 167, (R)-3-{(S)-2-[2-(2-Fluoro-phenyl)-acetylamino]-3-methyl-pentanoylamino}-8-trifluoromethyl-2,3,4,9-tetrahydro-1H-carbazole-3-carboxylic acid {(S)-1-[(3-ethyl-ureido)-methyl]-2-methyl-butyl}-amide]
452% | CCC(C)[C@H](NC(=O)Cc1ccccc1F)C(=O)N[C@]1(C(=O)N[C@H](C(=O)NN2CCOCC2)C(C)CC)CCc2[nH]c3c(C(F)(F)F)cccc3c2C1 (stereo partly drawn) [compound 219, (R)-3-{(S)-2-[2-(2-Fluoro-phenyl)-acetylamino]-3-methyl-pentanoylamino}-8-trifluoromethyl-2,3,4,9-tetrahydro-1H-carbazole-3-carboxylic acid [(S)-2-methyl-1-(morpholin-4-ylcarbamoyl)-butyl]-amide]
624% | CCC(C)[C@H](NC(=O)Cc1ccccc1F)C(=O)N[C@]1(C(=O)N[C@H](C(=O)NC2CCC(O)CC2)C(C)CC)CCc2[nH]c3c(C(F)(F)F)cccc3c2C1 (stereo partly drawn) [Compound 73, (R)-3-{(S)-2-[2-(2-Fluoro-phenyl)-acetylamino]-3-methyl-pentanoylamino}-8-trifluoromethyl-2,3,4,9-tetrahydro-1H-carbazole-3-carboxylic acid [(S)-1-(4-hydroxy-cyclohexylcarbamoyl)-2-methyl-butyl]-amide]
1352% | CCC(C)[C@H](NC(=O)Cc1ccccc1F)C(=O)N[C@]1(C(=O)N[C@H](C(=O)NNc2ccccc2)C(C)CC)CCc2[nH]c3c(C(F)(F)F)cccc3c2C1 (stereo partly drawn) [compound 144, (R)-3-{(S)-2-[2-(2-Fluoro-phenyl)-acetylamino]-3-methyl-pentanoylamino}-8-trifluoromethyl-2,3,4,9-tetrahydro-1H-carbazole-3-carboxylic acid [(S)-2-methyl-1-(N′-phenyl-hydrazinocarbonyl)-butyl]-amide]
1322% | CCC(C)[C@H](NC(=O)Cc1ccccc1F)C(=O)N[C@]1(C(=O)N[C@H](C(=O)NNC(=O)c2ccccc2)C(C)CC)CCc2[nH]c3c(C(F)(F)F)cccc3c2C1 (stereo partly drawn) [compound 242, (R)-3-{(S)-2-[2-(2-Fluoro-phenyl)-acetylamino]-3-methyl-pentanoylamino}-8-trifluoromethyl-2,3,4,9-tetrahydro-1H-carbazole-3-carboxylic acid [(S)-1-(N′-benzoyl-hydrazinocarbonyl)-2-methyl-butyl]-amide]
1033% | CCOC(=O)c1csc(C(NC(=O)[C@@]2(NC(=O)[C@@H](NC(=O)Cc3ccccc3F)[C@@H](C)CC)CCc3[nH]c4c(C(F)(F)F)cccc4c3C2)[C@@H](C)CC)n1 (stereo in doubt) [compound 251, 2-{(1R,2S)-1-[((R)-3-{(2S,3S)-2-[2-(2-Fluoro-phenyl)-acetylamino]-3-methyl-pentanoylamino}-8-trifluoromethyl-2,3,4,9-tetrahydro-1H-carbazole-3-carbonyl)-amino]-2-methyl-butyl}-thiazole-4-carboxylic acid ethyl ester]
1296% | CCC(C)[C@H](NC(=O)Cc1ccccc1F)C(=O)N[C@]1(C(=O)N[C@H](C(=O)Nc2ccc3ncccc3c2)C(C)CC)CCc2[nH]c3c(C(F)(F)F)cccc3c2C1 (stereo partly drawn) [compound 137, (R)-3-{(S)-2-[2-(2-Fluoro-phenyl)-acetylamino]-3-methyl-pentanoylamino}-8-trifluoromethyl-2,3,4,9-tetrahydro-1H-carbazole-3-carboxylic acid [(S)-2-methyl-1-(quinolin-6-ylcarbamoyl)-butyl]-amide]
800% | CCC(C)[C@H](NC(=O)Cc1ccccc1F)C(=O)N[C@]1(C(=O)N[C@H](CNC(=S)NCc2ccncc2)C(C)CC)CCc2[nH]c3c(C(F)(F)F)cccc3c2C1 (stereo partly drawn) [compound 205, (R)-3-{(S)-2-[2-(2-Fluoro-phenyl)-acetylamino]-3-methyl-pentanoylamino}-8-trifluoromethyl-2,3,4,9-tetrahydro-1H-carbazole-3-carboxylic acid [(S)-2-methyl-1-(3-pyridin-4-ylmethyl-thioureidomethyl)-butyl]-amide]
1259% | CCC(C)[C@H](NC(=O)Cc1ccccc1F)C(=O)N[C@]1(C(=O)N[C@H](C(=O)NCCCn2c[n+](C(C)(C)C)nn2)C(C)CC)CCc2[nH]c3c(C(F)(F)F)cccc3c2C1.O=C([O-])C(F)(F)F (stereo partly drawn) [compound 188, 1-tert-butyl-4-(3-{(S)-2-[((R)-3-{(S)-2-[2-(2-fluoro-phenyl)-acetylamino]-3-methyl-pentanoylamino}-8-trifluoromethyl-2,3,4,9-tetrahydro-1H-carbazole-3-carbonyl)-amino]-3-methyl-pentanoylamino}-propyl)-4H-tetrazol-1-ium; Trifluoro-acetate]
